Structures can show the parent of a compound that is named as a salt.
What was measured:
[1] = system: NCI-H292 lung cancer cells; test: FDA drug screening, complete media vs cholesterol-free media without statin (TABLE 1); format: cell-based, human
[2] = system: NCI-H292 lung cancer cells; test: FDA drug screening, complete media vs cholesterol-free media with simvastatin (TABLE 2); format: cell-based, human; settings: for Cholesterol-free media + simvastatin (0.04 μM) / Complete Media: NCI-H292 cells
[3] = Complete minus Cholesterol-free, greater than 0 enhanced anti-cancer activity, about 0 neutral, below 0 antagonist
[4] = NCI-H292 cells, FDA drug library screen, cholesterol-free media without statin
[5] = NCI-H292 cells, FDA drug library screen, complete media
[6] = drug in cholesterol-free media with simvastatin 0.04 μM
[7] = complete media vs cholesterol-free media + simvastatin (0.04 μM), >0 enhanced anti-cancer activity, about 0 neutral, <0 antagonist
[8] = NCI-H292 cells, cholesterol-free media without statin, FDA drug library screen
[9] = NCI-H292 cells, complete media, FDA drug library screen
[10] = FDA drug library screen, cholesterol-free media with simvastatin 0.04 μM
[11] = FDA drug library screen, complete media
[12] = complete media minus cholesterol-free media + simvastatin, >0 enhanced anti-cancer activity, about 0 neutral, <0 antagonist
[13] = Complete minus Cholesterol-free, >0 enhanced anti-cancer activity, about 0 neutral, <0 antagonist
[14] = NCI-H292 cells, cholesterol-free media without statin
[15] = FDA library drug in cholesterol-free media with simvastatin 0.04 μM
[16] = FDA library drug in complete media
[17] = cholesterol-free media with simvastatin 0.04 μM, FDA drug library screen (TABLE 2)
[18] = complete media, FDA drug library screen (TABLE 2)
[19] = complete media minus cholesterol-free media + simvastatin (0.04 μM), >0 enhanced anti-cancer activity, about 0 neutral, <0 antagonist

`COc1cc([C@@H]2c3cc4c(cc3[C@@H](O[C@@H]3O[C@@H]5CO[C@@H](c6cccs6)O[C@H]5[C@H](O)[C@H]3O)[C@H]3COC(=O)[C@H]23)OCO4)cc(OC)c1O` [Teniposide] was tested, and the Difference [1, 3] was −0.09, the Cholesterol-free [1, 4] was 0.1831 and the Complete [1, 5] was 0.09739. For the same compound, the “Cholesterol-free media + simvastatin (0.04 μM)” value [2, 6] was 0.3807, the “Complete Media” value ([2]; drug in complete media) was 0.1883 and the Difference [2, 7] was −0.19.

For `CC1=C(C(=O)O)N2C(=O)[C@@H](NC(=O)[C@H](N)c3ccc(O)cc3)[C@H]2SC1` [Cefadroxil], the Cholesterol-free [1, 8] was 1.424, the Complete [1, 9] was 1.685 and the Difference ([1]; complete vs cholesterol-free media, >0 enhanced anti-cancer activity, about 0 neutral, <0 antagonist) was 0.26. The “Cholesterol-free media + simvastatin (0.04 μM)” value [2, 10] was 1.041, the “Complete Media” value [2, 11] was 1.588 and the Difference [2, 12] was 0.55.

For `CCCCc1nc(Cl)c(CO)n1Cc1ccc(-c2ccccc2-c2nn[nH]n2)cc1` [Losartan (potassium)], the Difference [1, 13] was −0.24, the Cholesterol-free [1, 14] was 1.05 and the Complete ([1]; NCI-H292 cells, complete media) was 0.8102. The “Cholesterol-free media + simvastatin (0.04 μM)” value [2, 6] was 1.17, the “Complete Media” value ([2]; drug in complete media) was 0.9634 and the Difference [2, 7] was −0.21.

`C[C@@H]1O[C@@H]1P(=O)(O)O` [Fosfomycin (sodium)] showed a Difference [1, 13] of −0.22, a Cholesterol-free [1, 14] of 1.096 and a Complete ([1]; NCI-H292 cells, complete media) of 0.8782. For the same compound, the “Cholesterol-free media + simvastatin (0.04 μM)” value [2, 10] was 1.163, the “Complete Media” value [2, 11] was 1.004 and the Difference [2, 7] was −0.16.

With `Cc1ccc(Sc2ccccc2N2CCNCC2)c(C)c1` [Vortioxetine (hydrobromide)] the Difference [1, 13] was −0.30, the Cholesterol-free [1, 14] was 0.7215 and the Complete ([1]; NCI-H292 cells, complete media) was 0.4184. For the same compound, the “Cholesterol-free media + simvastatin (0.04 μM)” value [2, 15] was 1.363, the “Complete Media” value [2, 16] was 1.083 and the Difference [2, 7] was −0.28.

With `O=C1O[C@H]([C@@H](O)CO)C(O)=C1O` [L-Ascorbic acid (sodium salt)] the Difference [1, 3] was −0.14, the Cholesterol-free [1, 4] was 0.9664 and the Complete [1, 5] was 0.8232. The “Cholesterol-free media + simvastatin (0.04 μM)” value [2, 17] was 0.9802, the “Complete Media” value [2, 18] was 0.9199 and the Difference [2, 19] was −0.06.

`COc1ccccc1OCC(O)CN1CCN(CC(=O)Nc2c(C)cccc2C)CC1` (stereo not drawn) [Ranolazine (dihydrochloride)] gave a Difference [1, 13] of −0.23, a Cholesterol-free [1, 14] of 1.148 and a Complete ([1]; NCI-H292 cells, complete media) of 0.9194. The “Cholesterol-free media + simvastatin (0.04 μM)” value [2, 17] was 0.9671, the “Complete Media” value [2, 18] was 0.9017 and the Difference [2, 19] was −0.07.

With `CNC(=O)CN(CCN(CCN(CC(=O)[O-])CC(=O)NC)CC(=O)[O-])CC(=O)[O-].O.[Gd+3]` [Gadodiamide (hydrate)] the Difference ([1]; Complete minus Cholesterol-free, […]) was −0.65, the Cholesterol-free ([1]; NCI-H292 cells in cholesterol-free media without statin) was 1.387 and the Complete ([1]; NCI-H292 cells in complete media) was 0.7342. The “Cholesterol-free media + simvastatin (0.04 μM)” value [2, 10] was 1.113, the “Complete Media” value [2, 11] was 0.9905 and the Difference ([2]; complete media vs cholesterol-free media + simvastatin (0.04 μM), […]) was −0.12.

Work on `Nc1ccc(S(=O)(=O)Nc2ccc(Cl)nn2)cc1` [Sulfachloropyridazine] yielded a Difference [1, 3] of −0.17, a Cholesterol-free [1, 4] of 1.057 and a Complete [1, 5] of 0.8847. The “Cholesterol-free media + simvastatin (0.04 μM)” value [2, 17] was 0.9751, the “Complete Media” value [2, 18] was 0.932 and the Difference [2, 19] was −0.04.

`N[C@@H](Cc1c[nH]c2ccc(O)cc12)C(=O)O` [L-5-Hydroxytryptophan] showed a Difference [1, 3] of −0.10, a Cholesterol-free [1, 4] of 1.028 and a Complete [1, 5] of 0.9245. The “Cholesterol-free media + simvastatin (0.04 μM)” value [2, 10] was 1.408, the “Complete Media” value [2, 11] was 1.327 and the Difference [2, 7] was −0.08.

`CC(=O)OCC(=O)[C@@]1(O)CC[C@H]2[C@@H]3CCC4=CC(=O)CC[C@]4(C)[C@@]3(F)[C@@H](O)C[C@@]21C` [Fludrocortisone acetate] showed a Difference [1, 13] of −0.30, a Cholesterol-free [1, 14] of 0.7353 and a Complete ([1]; NCI-H292 cells, complete media) of 0.437. For the same compound, the “Cholesterol-free media + simvastatin (0.04 μM)” value ([2]; cholesterol-free media with simvastatin 0.04 μM, cell growth value in FDA drug screen) was 0.45, the “Complete Media” value ([2]; complete media, cell growth value in FDA drug screen) was 0.5624 and the Difference [2, 12] was 0.11.

Work on `CCOC(=O)c1ncn2c1CN(C)C(=O)c1cc(F)ccc1-2` [Flumazenil] yielded a Difference [1, 13] of 0.05, a Cholesterol-free [1, 8] of 1.073 and a Complete [1, 9] of 1.128. For the same compound, the “Cholesterol-free media + simvastatin (0.04 μM)” value [2, 15] was 1.268, the “Complete Media” value [2, 16] was 0.8397 and the Difference [2, 7] was −0.43.

Source: patent US20250144067A1, “PERSONALIZED STARVATION THERAPY FOR CANCER” (Faeth Therapeutics, Inc., priority 2021, published 2025)
